Laboratory results from the NIST ThermoML archive (doi:10.1016/j.fluid.2010.06.017).
± gives the expanded uncertainty stated by the source.

Test: wn = mass fraction of the nth substance listed
Details: 373.15 K; 34470 kPa; Liquid; Vibrating tube method; w1 = 0.4623

**Q.** Which mass density does the source give for `FC(F)(F)C1(F)C(F)(F)C(F)(F)C(F)(F)C(F)(C(F)(F)F)C1(F)F` (stereo unspecified) + C here?
**A.** The mass density was 1399 ± 17 kg/m3.
